We go through two compounds from patent publication US4855284A, “Calcium and magnesium complexes of phytohemagglutinin-polyheteroglycans, their preparation and pharmaceutical formulations” (Intex Pharmazeutische Produkte AG, priority 1985, dated 1989).

The test system of test [1] is ulcers and mucosal edema in the stomach. Put plainly: alcohol ulcer test (Robert), cytoprotective action. The class given is in vivo, Wistar rats. The settings on record: oral 500 mg/kg, 10 animals. As to the method: The cytoprotective action was tested by the alcohol ulcer test of A. J. E. Robert and coworkers, Am. J. Physiol. […] Liver Physiol. […] Usually, Wistar rats in groups with 10 animals in each are kept without food for 1 day and then treated once through a stomach tube with 1 to 2 ml of anhydrous ethanol which contains 0.5% hydrochloric acid.
After the death of the animals, the length of the resulting ulcers and the size of the resulting mucosal edema in the stomach are measured and compared with control animals not treated with the product. A basic aluminum complex of sucrose polysulfate (sucralfate, see below) was used for comparison.

Test [2] relates to edema induced by carrageen in the rat paw. Briefly: carrageen rat paw test (Winter), antiinflammatory action. The test is classed as in vivo, rat (female, CFY strain). The following applies: 10 mg/kg oral.

For Sucralfate, in test [1], the “Inhibition in %, Edema” value was determined as 79% and the “Inhibition in %, Ulcer” value was determined as 56%.

Turning to `COc1ccc2c(c1)c(CC(=O)O)c(C)n2C(=O)c1ccc(Cl)cc1` [Indomethacin], the “Inhibition in % (of swelling)” value in test [2] turned out to be 46%.
